Like-named read-outs stand apart in the source and are kept apart here.
What was measured:
[1] = test system: SW620 human colorectal cancer cells; experiment: MTT based cell viability assay: potentiation of the growth inhibiting activity of MMS
[2] = test system: Human breast cancer cell line T47D; experiment: Cell based caspase-3 activity assay: potentiation of MMS induced apoptosis; details: T47D cells, 11.1 μg/ml MMS, 24 hours, intracellular caspase-3 activity, read-out: EC50 (nM), potentiation of the apoptosis inducing activity of MMS
Method in brief: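 T47D cells were exposed for 24 h to compound plus a minimally apoptotic MMS dose (medium containing 11.1 μg/ml MMS). Lysates were incubated 3 h at 37 °C with (Ac-DEVD)2-R110 caspase-3 substrate (20 μM in added buffer) and read at ex 496/em 520 nm. EC50 came from a sigmoidal fit of RFU versus log concentration.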

[3] = Homo sapiens, SW-620, 120 h, read-out: IC50 (nM), potentiation of the growth inhibiting activity of MMS, SW620 cells, 1.7 μg/ml MMS, 5 days (120 hours), MTT
[4] = read-out: IC50 (nM), potentiation of the growth inhibiting activity of MMS, SW620 cells, 1.7 μg/ml MMS, 5 days (120 hours), MTT

| Compound | IC50 [1, 3] [nM] | EC50 ([2]; Homo sapiens, T47D, 24 h) [nM] | IC50 [1, 4] [nM] | EC50 [2] [nM] |
| --- | --- | --- | --- | --- |
| Cc1ccc2c(=O)[nH]c(=O)n(Cc3cccc(C(=O)N4CCN(c5ncccn5)CC4)c3)c2c1 [Example 80, 7-Methyl-1-(3-(4-(pyrimidin-2-yl)piperazine-1-carbonyl)benzyl)quinazoline-2,4(1H,3H)-dione] | > 10000 | 1190 |  |  |
| O=C(c1cccc(Cn2c(=O)[nH]c(=O)c3ccc(Cl)cc32)c1)N1CCN(C(=O)C2CCCC2)CC1 [Example 162, 7-Chloro-1-(3-(4-(cyclopentylcarbonyl)piperazine-1-carbonyl)benzyl)quinazoline-2,4(1H,3H)-dione] | 1190 | 495 |  |  |
| O=C(c1ccc(F)cc1)N1CCN(C(=O)c2cccc(Cn3c(=O)[nH]c(=O)c4ccccc43)c2)CC1 [Example 9, 1-(3-(4-(4-Fluorobenzoyl)piperazine-1-carbonyl)benzyl)quinazoline-2,4(1H,3H)-dione] | 500 | 426 |  |  |
| O=C(c1ccc(F)c(Cn2c(=O)[nH]c(=O)c3c(Cl)cccc32)c1)N1CCN(C(=O)C2CCCC2)CC1 [Example 109, 5-Chloro-1-(3-(4-(cyclopentylcarbonyl)piperazine-1-carbonyl)-6-fluorobenzyl)quinazoline-2,4(1H,3H)-dione] | 48 | 23 |  |  |
| O=C(c1cccs1)N1CCN(C(=O)c2cc(Cn3c(=O)[nH]c(=O)c4cc(Cl)ccc43)ccc2F)CC1 [Example 121, 6-Chloro-1-(4-fluoro-3-(4-(thiophene-2-carbonyl)piperazine-1-carbonyl)benzyl)quinazoline-2,4(1H,3H)-dione] | 4.5 | 4.9 |  |  |
| Cc1ccc2c(=O)[nH]c(=O)n(Cc3cccc(C(=O)N4CCN(C(=O)C5CCCC5)CC4)c3)c2c1 [Example 79, 1-(3-(4-(Cyclopentylcarbonyl)piperazine-1-carbonyl)benzyl)-7-methylquinazoline-2,4(1H,31H)-dione] |  |  | 5540 | 3220 |
| O=C(c1cccc(Cn2c(=O)[nH]c(=O)c3ccccc32)c1)N1CCN(CC2CCCCC2)CC1 [Example 73, 1-(3-(4-(Cyclohexylmethyl)piperazine-1-carbonyl)benzyl)quinazoline-2,4(1H,3H)-dione] | 3380 | 811 |  |  |
| O=C(c1cccc(Cn2c(=O)[nH]c(=O)c3cc(Cl)ccc32)c1)N1CCN(c2ccccn2)CC1 [Example 114, 6-Chloro-1-(3-(4-(pyridin-2-yl)piperazine-1-carbonyl)benzyl)quinazoline-2,4(1H,3H)-dione] | 51 | 19 |  |  |
| O=C(c1cccc(Cn2c(=O)[nH]c(=O)c3ccccc32)c1)N1CCN(c2ccccc2)CC1 [Example 19, 1-(3-(4-Phenylpiperazine-1-carbonyl)benzyl)quinazoline-2,4(1H,3H)-dione] | > 10000 | > 10000 |  |  |
| O=C(c1ccc(Cl)c(Cn2c(=O)[nH]c(=O)c3ccccc32)c1)N1CCN(C(=O)C2CCCCC2)CC1 [Example 57, 1-(6-Chloro-3-(4-(cyclohexylcarbonyl)piperazine-1-carbonyl)benzyl)quinazoline-2,4(1H,3H)-dione] | 46 | 22 |  |  |
| O=C(c1ccccc1)N1CCN(C(=O)c2cc(Cn3c(=O)[nH]c(=O)c4cc(Cl)ccc43)ccc2F)CC1 [Example 164, 6-Chloro-1-(3-(4-benzoylpiperazine-1-carbonyl)-4-fluorobenzyl)quinazoline-2,4(1H,3H)-dione] | 6.2 | 2.1 |  |  |
| Cc1cccc2c1c(=O)[nH]c(=O)n2Cc1cccc(C(=O)N2CCN(c3ncccn3)CC2)c1 [Example 159, 5-Methyl-1-(3-(4-(pyrimidin-2-yl)piperazine-1-carbonyl)benzyl)quinazoline-2,4(1H,3H)-dione] | 648 | 220 |  |  |
| O=C(c1ccncc1)N1CCN(C(=O)c2cccc(Cn3c(=O)[nH]c(=O)c4ccccc43)c2)CC1 [Example 38, 1-(3-(4-(Pyridine-4-carbonyl)piperazine-1-carbonyl)benzyl)quinazoline-2,4(1H,3H)-dione] | > 10000 | 267 |  |  |
| O=C(c1ccc(F)c(Cn2c(=O)[nH]c(=O)c3cc(Cl)ccc32)c1)N1CCN(c2ccccn2)CC1 [Example 174, 6-Chloro-1-(6-fluoro-3-(4-(pyridin-2-yl)piperazine-1-carbonyl)benzyl)quinazoline-2,4(1H,3H)-dione] | 94 | 37 |  |  |
| O=C(c1cccc(Cn2c(=O)[nH]c(=O)c3ccccc32)c1F)N1CCN(C(=O)C2CCCC2)CC1 [Example 62, 1-(3-(4-(Cyclopentylcarbonyl)piperazine-1-carbonyl)-2-fluorobenzyl)quinazoline-2,4(1H,3H)-dione] | 816 | 379 |  |  |
| O=C(c1cccc(Cn2c(=O)[nH]c(=O)c3ccccc32)c1)N1CCC(c2noc3cc(F)ccc23)CC1 [Example 31, 1-(3-(4-(6-Fluorobenzo[d]isoxazol-3-yl)piperidine-1-carbonyl)benzyl)quinazoline-2,4(1H,3H)-dione] | 2600 | 112 |  |  |
| O=C(c1cccc(Cn2c(=O)[nH]c(=O)c3ccccc32)c1)N1CCN(c2nccs2)CC1 [Example 72, 1-(3-(4-(Thiazol-2-yl)piperazine-1-carbonyl)benzyl)quinazoline-2,4(1H,3H)-dione] | 80 | 41 |  |  |

The next lines start with the values.

| IC50 [1, 3] [nM] | EC50 ([2]; Homo sapiens, T47D, 24 h) [nM] | IC50 [1, 4] [nM] | EC50 [2] [nM] | Compound |
| --- | --- | --- | --- | --- |
| > 10000 | 743 |  |  | O=C(c1cccc(Cn2c(=O)[nH]c(=O)c3ccccc32)c1)N1CCN(C2CCCC2)CC1 [Example 177, 1-(3-(4-Cyclopentylpiperazine-1-carbonyl)benzyl)quinazoline-2,4(1H,3H)-dione] |
| > 10000 | > 10000 |  |  | Cc1cccc2c(=O)n(Cc3cccc(C(=O)N4CCN(c5ncccn5)CC4)c3)c(=O)[nH]c12 [Example 225, 8-Methyl-3-(3-(4-(pyrimidin-2-yl)piperazine-1-carbonyl)benzyl)quinazoline-2,4(1H,3H)-dione] |
| > 10000 | > 10000 |  |  | COc1ccc(CC(=O)Nc2cccc(Cn3c(=O)[nH]c(=O)c4ccccc43)c2)cc1OC [Example 197, 1-(3-(3,4-Dimethoxyphenyl)acetamidobenzyl)quinazoline-2,4(1H,3H)-dione] |
| 103 | 294 |  |  | COc1ccc2c(=O)[nH]c(=O)n(Cc3cccc(C(=O)N4CCN(c5ncccn5)CC4)c3)c2c1 [Example 209, 7-Methoxy-1-(3-(4-(pyrimidin-2-yl)piperazine-1-carbonyl)benzyl)quinazoline-2,4(1H,3H)-dione] |
| 1110 | 274 |  |  | O=C(c1cccc(Cn2c(=O)[nH]c(=O)c3cccc(Cl)c32)c1)N1CCN(c2ncccn2)CC1 [Example 224, 8-Chloro-1-(3-(4-(pyrimidin-2-yl)piperazine-1-carbonyl)benzyl)quinazoline-2,4(1H,3H)-dione] |
| > 10000 | > 10000 |  |  | O=C(c1ccccc1Cn1c(=O)[nH]c(=O)c2ccccc21)N1CCN(c2ncccn2)CC1 [Example 220, 1-(2-(4-(Pyrimidin-2-yl)piperazine-1-carbonyl)benzyl)quinazoline-2,4(1H,3H)-dione] |
| 37 | 24 |  |  | COc1ccc(C(=O)N2CCN(c3ncccn3)CC2)cc1Cn1c(=O)[nH]c(=O)c2c(F)cccc21 [Example 208, 5-Fluoro-1-(6-methoxy-3-(4-(pyrimidin-2-yl)piperazine-1-carbonyl)benzyl)quinazoline-2,4(1H,3H)-dione] |
| > 10000 | > 10000 |  |  | COc1ccc(CNC(=O)c2cc(Cn3c(=O)[nH]c(=O)c4c(F)cccc43)ccc2F)cc1 [Example 200, 5-Fluoro-1-(4-fluoro-3-(4-methoxybenzylcarbamoyl)benzyl)quinazoline-2,4(1H,3H)-dione] |
| 2.6 | 3.2 |  |  | O=C(c1cccc(Cn2c(=O)[nH]c(=O)c3cccc(O)c32)c1)N1CCN(c2ncccn2)CC1 [Example 230, 8-Hydroxy-1-(3-(4-(pyrimidin-2-yl)piperazine-1-carbonyl)benzyl)quinazoline-2,4(1H,3H)-dione] |
|  |  | > 10000 | > 10000 | O=C(c1cccc(Cn2c(=O)[nH]c(=O)c3cc4c(cc32)OCO4)c1)N1CCN(c2ncccn2)CC1 [Example 216, 6,7-Methylenedioxo-1-(3-(4-(pyrimidin-2-yl)piperazine-1-carbonyl)benzyl)quinazoline-2,4(1H,3H)-dione] |
| 16 | 14 |  |  | O=C(c1cc(F)cc(Cn2c(=O)[nH]c(=O)c3cc(Cl)ccc32)c1)N1CCN(c2ncccn2)CC1 [Example 175, 6-Chloro-1-(5-fluoro-3-(4-(pyrimidin-2-yl)piperazine-1-carbonyl)benzyl)quinazoline-2,4(1H,3H)-dione] |
| 7.9 | 11 |  |  | O=C(c1cc(Cn2c(=O)[nH]c(=O)c3cc(F)ccc32)ccc1F)N1CCN(C(=O)C2CC2)CC1 [Example 178, 1-(3-(4-(Cyclopropylcarbonyl)piperazine-1-carbonyl)-4-fluorobenzyl)-6-fluoroquinazoline-2,4(1H,3H)-dione] |
|  |  | > 10000 | > 10000 | O=C(c1cccc(Cn2c(=O)[nH]c(=O)c3cc4c(cc32)OCCO4)c1)N1CCN(c2ncccn2)CC1 [Example 207, 6,7-Ethylenedioxo-1-(3-(4-(pyrimidin-2-yl)piperazine-1-carbonyl)benzyl)quinazoline-2,4(1H,3H)-dione] |

— US9926304B2, “1-(arylmethyl)quinazoline-2,4(1H,3H)-diones as PARP inhibitors and the use thereof” (Impact Therapeutics, Inc., priority 2011, dated 2018)
